Results from PubChem BioAssay (NCI).
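How tested: cells in 96-well plates exposed to compound for 48 hours at five concentrations. The concentration for 50% growth inhibition is given as GI50. At the TGI there is no net growth.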

What was measured:
Assay in all cases: NCI-60 cell line screen, 48 h
[1] = test system: SF-268 CNS
[2] = test system: SW-620 colon
[3] = test system: U251 CNS
[4] = test system: HOP-92 NSCLC
[5] = test system: NCI-H522 lung
[6] = test system: OVCAR-5 ovarian
[7] = test system: RXF 393 renal
[8] = test system: HCC-2998 colon
[9] = test system: NCI/ADR-RES ovarian
[10] = test system: HOP-62 NSCLC

Structure (SMILES): CCC(=O)Nc1ccc(N=NN(C)C)cc1
- TGI [1]: > 100 µM
- TGI [2]: > 100 µM
- TGI [3]: > 100 µM
- TGI [4]: 90.2 µM
- TGI [5]: > 100 µM
- TGI [6]: > 100 µM
- TGI [7]: > 100 µM
- TGI [8]: 6.64 µM
- TGI [9]: > 100 µM
- TGI [10]: > 100 µM

Structure (SMILES): Nc1ccc2nc3n(c2c1)C(=O)c1ccccc1-3
- TGI [1]: > 100 µM
- TGI [2]: > 100 µM
- TGI [3]: > 100 µM
- TGI [4]: > 100 µM
- TGI [5]: > 100 µM
- TGI [6]: > 100 µM
- TGI [7]: > 100 µM
- TGI [8]: > 100 µM
- TGI [9]: > 100 µM

Structure (SMILES): O=C(N/N=C/c1c(Cl)cccc1Cl)c1ccc(C(F)(F)F)nc1Nc1cccc(C(F)(F)F)c1
- GI50 [1]: 1.22 µM
- TGI [1]: > 29.3 µM
- GI50 [2]: 0.458 µM
- TGI [2]: > 51.1 µM
- GI50 [3]: 0.588 µM
- TGI [3]: 12.8 µM
- GI50 [4]: 0.293 µM
- TGI [4]: 3 µM
- GI50 [5]: 1.76 µM
- TGI [5]: > 33.6 µM
- GI50 [6]: 4.06 µM
- TGI [6]: > 30.2 µM
- GI50 [8]: 3.97 µM
- TGI [8]: > 100 µM
- GI50 [9]: 0.616 µM
- GI50 [10]: 1.29 µM
- TGI [10]: 14.4 µM

Structure (SMILES): Clc1cc(Cl)cc(Nc2ccc3cc(OCCCN4CCOCC4)ccc3n2)c1
- GI50 [1]: 2.9 µM
- TGI [1]: > 100 µM
- GI50 [4]: 1.63 µM
- TGI [4]: 5.01 µM
- GI50 [5]: 2.08 µM
- TGI [5]: 5.22 µM
- GI50 [7]: 1.51 µM
- TGI [7]: 3.6 µM
- GI50 [8]: 1.73 µM
- TGI [8]: 3.31 µM
- GI50 [9]: 2.96 µM
- TGI [9]: > 100 µM

Structure (SMILES): COC(=O)CCC1=C(CC(=O)OC)C(C)=N/C1=C\c1[nH]c(-c2ccc[nH]2)cc1OC
- GI50 [1]: 5.95 µM
- TGI [1]: 21.3 µM
- GI50 [2]: 3.63 µM
- TGI [2]: 18 µM
- GI50 [3]: 2.48 µM
- TGI [3]: 12.6 µM
- GI50 [4]: 1.83 µM
- TGI [4]: 5.9 µM
- GI50 [5]: 1.81 µM
- TGI [5]: 3.97 µM
- GI50 [6]: 3.9 µM
- TGI [6]: 18.8 µM
- GI50 [7]: 2.15 µM
- TGI [7]: 9.56 µM
- GI50 [8]: 3.46 µM
- TGI [8]: 15.6 µM
- GI50 [9]: 4.06 µM
- TGI [9]: 16.9 µM
- GI50 [10]: 8.56 µM
- TGI [10]: 24.2 µM

Structure (SMILES): O=[N+]([O-])c1ccc(CSCc2ccc(Cl)cc2)cc1
- TGI [1]: > 100 µM
- TGI [2]: > 100 µM
- TGI [3]: > 100 µM
- TGI [4]: > 100 µM
- TGI [5]: > 100 µM
- TGI [6]: > 100 µM
- TGI [7]: > 100 µM
- TGI [9]: > 100 µM
- TGI [10]: > 100 µM

Structure (SMILES): Cc1nn(C(=O)c2ccc(Cl)cc2)c2c1C(c1ccc(O)cc1)SC(N)=N2 (stereo not given)
- TGI [1]: > 10 µM
- TGI [2]: > 10 µM
- TGI [3]: > 10 µM
- TGI [4]: > 10 µM
- TGI [5]: > 10 µM
- TGI [6]: > 10 µM
- TGI [7]: > 10 µM
- TGI [8]: > 10 µM
- TGI [9]: > 10 µM
- TGI [10]: > 10 µM

Structure (SMILES): O=C(CSC(c1ccccc1)c1ccccc1)N/N=C/c1ccco1
- GI50 [1]: 2.25 µM
- TGI [1]: > 12.5 µM
- GI50 [2]: 2.9 µM
- TGI [2]: > 11.6 µM
- GI50 [3]: 1.77 µM
- TGI [3]: 3.21 µM
- GI50 [4]: 1.44 µM
- TGI [4]: 2.97 µM
- GI50 [5]: 1.4 µM
- TGI [5]: 4.49 µM
- GI50 [6]: 1.97 µM
- TGI [6]: 5.24 µM
- GI50 [7]: 1.25 µM
- TGI [7]: 3.32 µM
- GI50 [8]: 1.62 µM
- TGI [8]: 3.58 µM
- TGI [9]: 1.24 µM
- GI50 [10]: 1.84 µM
- TGI [10]: 3.84 µM

Structure (SMILES): C=C1CC[C@@H](C(C)C)C[C@@H]2[C@H]([C@H](O)C[C@]2(C)O)[C@@]2(C)CC[C@@H]1O2
- GI50 [1]: 16.5 µM
- TGI [1]: 30.1 µM
- GI50 [2]: 20.6 µM
- TGI [2]: 39.9 µM
- GI50 [3]: 16.9 µM
- TGI [3]: 30.5 µM
- GI50 [4]: 6.84 µM
- TGI [4]: 20.7 µM
- GI50 [5]: 15.2 µM
- TGI [5]: 29.8 µM
- GI50 [6]: 13.2 µM
- TGI [6]: 26 µM
- GI50 [7]: 19.6 µM
- TGI [7]: 34.1 µM
- GI50 [8]: 13.9 µM
- TGI [8]: 26.9 µM
- GI50 [9]: 16.7 µM
- TGI [9]: 33.2 µM
- GI50 [10]: 17.7 µM
- TGI [10]: 31.6 µM

Structure (SMILES): O=C(N/N=C/c1ccc([N+](=O)[O-])o1)c1ccc(O)cc1
- GI50 [1]: 6.73 µM
- TGI [1]: > 100 µM
- GI50 [2]: 3.85 µM
- TGI [2]: > 100 µM
- GI50 [3]: 5.17 µM
- TGI [3]: > 100 µM
- GI50 [4]: 17.5 µM
- TGI [4]: 80.9 µM
- GI50 [5]: 6.59 µM
- TGI [5]: 26.7 µM
- GI50 [6]: 9.32 µM
- TGI [6]: > 100 µM
- GI50 [7]: 12.9 µM
- TGI [7]: 73.8 µM
- GI50 [8]: 4.98 µM
- TGI [8]: > 100 µM
- GI50 [9]: 5.54 µM
- TGI [9]: > 100 µM
- GI50 [10]: 6.2 µM
- TGI [10]: > 100 µM

Structure (SMILES): C[C@]12CC[C@@H]3c4ccc(O)c([N+](=O)[O-])c4CC[C@H]3[C@@H]1CC[C@@H]2NS(=O)(=O)c1cccc(Br)c1
- GI50 [1]: 2.99 µM
- TGI [1]: 10.3 µM
- GI50 [2]: 2.7 µM
- TGI [2]: 9.42 µM
- GI50 [3]: 1.9 µM
- TGI [3]: 4.28 µM
- GI50 [4]: 1.53 µM
- TGI [4]: 5.03 µM
- GI50 [6]: 2.16 µM
- TGI [6]: 5.17 µM
- GI50 [7]: 2.03 µM
- TGI [7]: 4.21 µM
- GI50 [8]: 2.06 µM
- TGI [8]: 3.97 µM
- GI50 [9]: 2.69 µM
- TGI [9]: 8.55 µM
- GI50 [10]: 1.9 µM
- TGI [10]: 3.54 µM

Structure (SMILES): COc1ccc(Cc2cnc(NC(=O)c3ccc4c(c3)OCCO4)s2)cc1
- GI50 [1]: 0.211 µM
- TGI [1]: > 100 µM
- GI50 [2]: 0.0338 µM
- TGI [2]: > 100 µM
- GI50 [3]: 0.0388 µM
- TGI [3]: > 85.8 µM
- GI50 [4]: 3.62 µM
- TGI [4]: > 76.6 µM
- GI50 [5]: < 0.0125 µM
- GI50 [6]: 0.0866 µM
- TGI [6]: > 72.6 µM
- GI50 [8]: 0.038 µM
- TGI [8]: > 69.6 µM
- GI50 [9]: 0.024 µM
- TGI [9]: > 100 µM
- GI50 [10]: 0.0602 µM
- TGI [10]: > 100 µM

Structure (SMILES): Cc1ncc([N+](=O)[O-])n1CCNS(=O)(=O)CCCn1ncnc1[N+](=O)[O-]
- TGI [1]: > 100 µM
- TGI [2]: > 100 µM
- TGI [3]: > 100 µM
- TGI [4]: > 100 µM
- TGI [5]: > 100 µM
- TGI [6]: > 100 µM
- TGI [7]: > 100 µM
- TGI [9]: > 100 µM
- TGI [10]: > 100 µM

Structure (SMILES): N#Cc1ccc(OC(=O)Nc2ccc(Cl)c(Cl)c2)cc1
- GI50 [1]: 5.27 µM
- TGI [1]: > 100 µM
- GI50 [2]: 3.31 µM
- TGI [2]: > 100 µM
- GI50 [3]: 3.04 µM
- TGI [3]: 23.2 µM
- GI50 [4]: 1.9 µM
- TGI [4]: 7.34 µM
- GI50 [6]: 5.79 µM
- TGI [6]: > 100 µM
- GI50 [7]: 7.3 µM
- TGI [7]: 42.2 µM
- GI50 [8]: 4.79 µM
- TGI [8]: 26.5 µM
- GI50 [9]: 3.79 µM
- TGI [9]: > 100 µM
- GI50 [10]: 7.5 µM
- TGI [10]: 60.7 µM

Structure (SMILES): CO/N=C(/C)c1cccc(Nc2cc(-c3ccccc3)nc3ccc(OC)cc23)c1
- GI50 [1]: 3.64 µM
- TGI [1]: 14.1 µM
- GI50 [2]: 4.74 µM
- TGI [2]: 29.6 µM
- GI50 [3]: 6.62 µM
- TGI [3]: 23.7 µM
- GI50 [4]: 2.55 µM
- TGI [4]: 8.55 µM
- GI50 [5]: 17.8 µM
- TGI [5]: > 100 µM
- GI50 [6]: 15.3 µM
- TGI [6]: 37.3 µM
- GI50 [8]: 4.97 µM
- TGI [8]: 20.8 µM
- GI50 [9]: 4.7 µM
- TGI [9]: 24 µM
- GI50 [10]: 2.37 µM
- TGI [10]: 6.17 µM

Structure (SMILES): Nc1nc(N)nc(CCCc2nc(N)nc(N)n2)n1
- TGI [1]: > 100 µM
- TGI [2]: > 100 µM
- TGI [3]: > 100 µM
- TGI [4]: > 100 µM
- TGI [5]: > 100 µM
- TGI [6]: > 100 µM
- TGI [7]: > 100 µM
- TGI [9]: > 100 µM
- TGI [10]: > 100 µM
